Laboratory results from patent US20080305186A1, “Method and Composition for the Treatment of Cardiac Hypertrophy” (BOARD OF REGENTS, THE UNIVERSITY OF TEXAS SYSTEM, priority 2007, published 2008).

Test system: cardiac gene expression
Assay: Microarray analysis of cardiac gene expression (GeneChip Mouse Genome 430 2.0)
Type: in vivo, mice
Experimental: Microarray Sample Preparation and Analysis. Animal hearts were rapidly removed, and the atria and right ventricles were cut and immediately plunged into TRIzol Reagent (Life Technologies). Total RNA was isolated following the manufacturer's instructions, purified by phenol-chloroform extraction and then ethanol precipitation, and 20 μg further processed for microarray analysis. Briefly, cDNA synthesis, in vitro transcription, and labeling and fragmentation to produce the oligonucleotide probes were performed as instructed by the GeneChip manufacturer (Affymetrix). The probes were first hybridized to a test array (Affymetrix) and then to the GeneChip Mouse Genome 430 2.0 Array, using the GeneChip Hybridization Oven 640. The chips were washed in a GeneChip Fluidics Station 450 (Affymetrix), and the results were visualized with a GeneChip G7 scanner (Affymetrix). RMA normalization, pairwise comparisons, Student's t test and Benjamini and Hochberg correction were subsequently performed using GeneSifter (VizX Labs, Seattle, Wash.) and Spotfire DecisionSite 8.3 (Spotfire, Inc., Somerville, Mass.).
Effects on Gene Expression Profile. […] One mouse heart was used for each array, and was performed in triplicate, generating a total of 12 arrays. GeneSifter was used to perform RMA normalization, pairwise comparisons of averaged signal intensity values, and Student's t-test with Benjamini and Hochberg correction, and Spotfire was used to perform pairwise comparisons. […] Additionally, genes that were altered between any two N or cardiac hypertrophy samples were removed, as these alterations most likely represented normal variations between mice.

C[C@H]1c2cccc(O)c2C(=O)C2=C(O)[C@]3(O)C(=O)C(C(N)=O)=C(O)[C@@H](N(C)C)[C@@H]3[C@@H](O)[C@@H]21 [doxycycline]
FC EST (GenBank BM245060, vs mice given only isoproterenol): −2.3
FC Fos-like antigen 2 (Fosl2) (GenBank BM245170, vs mice given only isoproterenol): −2.6
FC ESTs (GenBank BM246377, vs mice given only isoproterenol): −1.9
FC Cytoglobin (Cygb) (GenBank BM899392, vs mice given only isoproterenol): 1.8
FC Flavin containing monooxygenase 2 (Fmo2) (GenBank BM936480, vs mice given only isoproterenol): −2.7
FC Tripartite motif protein 24 (Trim24) (GenBank BM945528, heart, drug + isoproterenol vs isoproterenol-only mice, CH vs normal FC 1.6): −1.8 fold
FC Headcase homolog (Heca) (GenBank BQ031006, vs mice given only isoproterenol): −2.2
FC SERTA domain containing 4 (Sertad4) (GenBank BQ174721, vs mice given only isoproterenol): 2.0
FC EST (GenBank BQ176399, vs mice given only isoproterenol): −1.6
FC Sema domain, seven thrombospondin repeats (type 1 and type 1-like), transmembrane domain (TM) and short cytoplasmic domain, (semaphorin) 5A (Sema5a) (GenBank BQ176610, vs mice given only isoproterenol): −3.9
FC Transmembrane protein 38B (Tmem38b) (GenBank C77858, heart, drug + isoproterenol vs isoproterenol-only mice, CH vs normal FC 2.1): −1.5 fold
FC Mitochondrial ribosomal protein L45 (Mrpl45) (GenBank C79823, vs mice given only isoproterenol): 2.4
FC Leukemia inhibitory factor receptor (Lifr) (GenBank D17444, vs mice given only isoproterenol): −2.0
FC Tripartite motif protein 25 (Trim25) (GenBank D63902, heart, drug + isoproterenol vs isoproterenol-only mice, CH vs normal FC 1.7): −2.1 fold
FC L20048 (GenBank L20048, vs mice given only isoproterenol): −1.9
FC Cytoplasmic beta-actin (Actb) (GenBank M12481, vs mice given only isoproterenol): 3.1
FC Multidrug resistae protein (MDR) (Acb1a) (GenBank M30697, vs mice given only isoproterenol): −2.6
FC Thymoma viral proto-oogene 2 (Akt2) (GenBank NM_007434, heart, drug + isoproterenol vs isoproterenol-only mice, CH vs normal FC −1.8): 1.7 fold
FC Early B-cell factor (Ebf1) (GenBank NM_007897, vs mice given only isoproterenol): 2.1
FC Epidermal growth factor receptor pathway substrate 8 (Eps8) (GenBank NM_007945, vs mice given only isoproterenol): −1.8
FC Tumor necrosis factor receptor superfamily, member 6 (Tnfrsf6) (Fas) (GenBank NM_007987, heart, drug + isoproterenol vs isoproterenol-only mice, CH vs normal FC 2.8): −2.4 fold
FC Glutamate-cysteine ligase, modifier subunit (Gclm) (GenBank NM_008129, vs mice given only isoproterenol): −1.8
FC Jun-B oogene (Junb) (GenBank NM_008416, vs mice given only isoproterenol): −2.0
FC Potassium voltage-gated channel, shaker-related subfamily, member 5 (Kcna5) (GenBank NM_008419, vs mice given only isoproterenol): −2.4
FC NM_008808 (GenBank NM_008808, vs mice given only isoproterenol): 1.7
FC Pphospholipid scramblase 2 (Plscr2) (GenBank NM_008880, vs mice given only isoproterenol): −1.8
FC S100 calcium binding protein A9 (calgranulin B) (S100a9) (GenBank NM_009114, vs mice given only isoproterenol): −14.0
FC Tubulin, alpha 3 (Tuba3) (GenBank NM_009446, heart, drug + isoproterenol vs isoproterenol-only mice, CH vs normal FC −1.9): 1.9 fold
FC Tubulin, alpha 4 (Tuba4) (GenBank NM_009447 (first entry, r874), heart, drug + isoproterenol vs isoproterenol-only mice, CH vs normal FC −4.3): 4.7 fold
FC Tubulin, alpha 4 (Tuba4) (GenBank NM_009447 (second entry, r876), heart, drug + isoproterenol vs isoproterenol-only mice, CH vs normal FC −6.2): 5.8 fold
FC Glucocorticoid-induced leucine zipper (Gilz) (Dsip1) (GenBank NM_010286, vs mice given only isoproterenol): −2.5
FC Lymphocyte antigen 6 complex, locus C (Ly6c) (GenBank NM_010741, vs mice given only isoproterenol): −2.1
FC Matrix metalloproteinase 3 (Mmp3) (GenBank NM_010809, vs mice given only isoproterenol): −2.9
FC Notch gene homolog 4, (Drosophila) (Notch4) (GenBank NM_010929, vs mice given only isoproterenol): −2.2
FC Proline dehydrogenase (Prodh) (GenBank NM_011172, vs mice given only isoproterenol): −2.0
FC Small inducible cytokine A9 (Scya9) (Ccl9) (Mip-1[…]) (GenBank NM_011338, vs mice given only isoproterenol): −2.1
FC Interferon-related developmental regulator 1 (Ifrd1) (GenBank NM_013562, vs mice given only isoproterenol): −1.6
FC Methyl-CpG binding domain protein 1 (Mbd1) (GenBank NM_013594, vs mice given only isoproterenol): −2.6
FC Metallothionein 1 (Mt1) (GenBank NM_013602, vs mice given only isoproterenol): −2.4
FC S100 calcium binding protein A8 (calgranulin A) (S100a8) (GenBank NM_013650, vs mice given only isoproterenol): −19.9
FC Mitogen-activated protein kinase kinase kinase 6 (Map3k6) (GenBank NM_016693, vs mice given only isoproterenol): −3.2
FC Tubulin, alpha 8 (Tuba8) (GenBank NM_017379, heart, drug + isoproterenol vs isoproterenol-only mice, CH vs normal FC −3.3): 3.1 fold
FC Small inducible cytokine subfamily B (Cys-X-Cys), member 13 (Scyb13) (Cxcl13) (GenBank NM_018866, vs mice given only isoproterenol): −4.4
FC Ras-related associated with diabetes (Rrad) (GenBank NM_019662, vs mice given only isoproterenol): 2.4
FC Phosphodiesterase 4A, cAMP specific (Pde4a) (GenBank NM_019798, vs mice given only isoproterenol): 1.8
FC Toll-like receptor 4 (TLR4) (GenBank NM_021297, heart, drug + isoproterenol vs isoproterenol-only mice, CH vs normal FC 3.2): −2.6 fold
FC Solute carrier family 43, member 3 (Slc43a3) (GenBank NM_021398, vs mice given only isoproterenol): −2.0
FC Titin immunoglobulin domain protein (Myotilin, Myot) (GenBank NM_021484, heart, drug + isoproterenol vs isoproterenol-only mice, CH vs normal FC 4.8): −3.0 fold
FC Jutophilin 2 (Jph2) (GenBank NM_021566, vs mice given only isoproterenol): 2.1
FC Transformation related protein 53 inducible nuclear protein 1 (Trp53inp1) (GenBank NM_021897, heart, drug + isoproterenol vs isoproterenol-only mice, CH vs normal FC 4.8): −3.5 fold
FC Homocysteine-inducible, endoplasmic reticulum stress-inducible, ubiquitin-like domain member 1 (Herpud1) (GenBank NM_022331, vs mice given only isoproterenol): −3.0
FC Retinol binding protein 7, cellular (Rbp7) (GenBank NM_023462, vs mice given only isoproterenol): −1.6
FC Thioredoxin interacting protein (Txnip) (GenBank NM_023719, heart, drug + isoproterenol vs isoproterenol-only mice, CH vs normal FC 1.8): −3.5 fold
FC F-box only protein 32 (Fbxo32) (GenBank NM_026346, vs mice given only isoproterenol): −4.7
FC Membrane-spanning 4-domains, subfamily A, member 6d (Ms4a6d) (GenBank NM_026835, vs mice given only isoproterenol): −2.2
FC Membrane-spanning 4-domains, subfamily A, member 6B (Ms4a6b) (GenBank NM_027209, vs mice given only isoproterenol): −1.7
FC Leucine-rich alpha-2-glycoprotein (Lrg-pending) (GenBank NM_029796, vs mice given only isoproterenol): −2.9
FC Fibroblast growth factor 16 (Fgf16) (GenBank NM_030614, vs mice given only isoproterenol): 2.8
FC Transcription factor 23 (Tcf23) (GenBank NM_053085, heart, drug + isoproterenol vs isoproterenol-only mice, CH vs normal FC 3.5): −2.3 fold
FC Secretoglobin, family 3A, member 1 (Scgb3a1) (GenBank NM_054037, vs mice given only isoproterenol): −2.2
